Each structure is given as a SMILES string. Where two headings read alike, the source gives them in different places.

Drawing on EP0619297B1, “Fungicides for the control of take-all desease of plants” (MONSANTO COMPANY, priority 1993, dated 1994), this text covers inhibition and pest or weed control for 20 molecules.

The test system of assay [1] is Gaeumannomyces graminis var. tritici (Ggt). In words: In vitro assay: mycelial growth on minimal media agar plates (Percent Inhibition; IC50). It is filed as cell-based. To be noted: for inhibition at 0.1 ppm: read-out: In vitro(ppm) 0.1, Percent Inhibition; for inhibition at 1 ppm: read-out: In vitro(ppm) 1, Percent Inhibition; for inhibition at 10 ppm: read-out: In vitro(ppm) 10, Percent Inhibition. On the procedure:
The test compounds (0.25 mL of an appropriate stock solution in acetone) are incorporated into 25 mL minimal media agar [prepared by autoclaving a solution of 17.5 g Czapek Dox broth (Difco), 7.5 g purified agar or Bacto-agar (Difco), and 500 mL distilled/deionized water, and then adding 50 µL of 1 mg/mL thiamine hydrochloride and 50 µL of 1 mg/mL biotin in 5% ethanol] and plates are prepared.
Each plate is inoculated by placing in a triangular shape three 4-mm plugs of Gaeumannomyces graminis var. tritici (Ggt) grown on the minimal media agar described above. The plates are incubated in the dark at 19 - 20 °C for 4 to 5 days. The growth of the fungus is measured as the diameter of the mycelial growth. The result is expressed as Percent Inhibition, calculated as [1 - [(mm growth on treated plate - 4)/(mm growth on control plate - 4)]] x 100.
To determine IC5O values, an in vitro assay was run on each compound at the concentrations of 1, 0.1, 0.01, 0.001, and 0.0001 ppm. The percent inhibition was calculated for each concentration using the equation described in the in vitro assay under the section on Biological Assays. Using the two ordered pairs of (concentration, % inhibition) that bracket 50% inhibition of fungal growth, the concentration for 50% inhibition is calculated from the following equation. IC50 = [(50-I2 )C1 + (I1 -50)C2 ]/(I1 -I2 ), [formula] where C1 = 10C2.

The test system of a further assay is Ggt. In words: In vivo assay: control of Ggt on wheat in 3-inch pots with infested soil, rated after four weeks.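 On In vivo(ppm) 0.1, percent disease control: rate is mg active ingredient per pot in 3 mL solution not ppm.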 Further details: species or system Gaeumannomyces graminis var. tritici. The note with it: Gaeumannomyces graminis, 672 h; for pest or weed control at 0.1 mg/pot: read-out: In vivo(ppm) 0.1, percent disease control; for pest or weed control at 0.5 mg/pot: read-out: In vivo(ppm) 0.5, percent disease control. On the procedure:
Compounds are tested for control of Ggt on 'Bergen' or 'Anza' varieties of wheat grown in 3-inch square pots containing soil infested with Ggt. The infestation is accomplished by mixing the soil with an inoculum prepared by growing Ggt on 1/4 strength potato dextrose agar (4.875 g potato dextrose agar, 5.0 g Bacto agar, 500 mL distilled, deionized water) in plates and using plugs from the plates to infest sterile oats (400 cc whole oats, 350 mL deionized water, autoclaved). After a one-month incubation period at room temperature, the oats are dried and mixed with the soil at 4% v/v. Four wheat seeds are placed on top of the soil in each pot. […] Five pots are used for each treatment level and the controls, which are untreated, inoculated and non-inoculated pots. After one hour drying time, the seeds are covered with more of the appropriate soil and a layer of vermiculite. The pots are placed in a growth chamber and watered each day. After four weeks, each pot is evaluated for evidence of disease by examination of the seminal roots of each plant under a dissecting microscope. A 0 to 5 rating scale having the following meanings is used: • 0 = no runner hyphae or lesions present • 1 = runner hyphae and a few small lesions present on <10% of root system • 2 = runner hyphae and small lesions present on 10 - 25% of root system • 3 = runner hyphae and lesions present on 25 - 50% of root system • 4 = runner hyphae and many, large, coalescing lesions on >50% of root system • 5 = root system and culm completely inundated with lesions and runner hyphae
From each set of five replicates a high or low score may be eliminated to assure the best representative scores are used to calculate a replicate mean by averaging the remaining scores. This mean score is then compared to the untreated control score and a percent disease control is calculated.

[2] abbreviates: 0.1 ppm in agar, 19 - 20 °C, 4 to 5 days.
The mark [3] stands for this setting: 1 ppm in agar, 19 - 20 °C, 4 to 5 days.
[4] abbreviates: 10 ppm in agar, 19 - 20 °C, 4 to 5 days.

Broadly, the inhibition is the drop in the measured response relative to a control, in per cent. For the molecule `CCNC(=O)c1c([Si](C)(C)C)cc(F)c2ccccc12` [Example 1, N-Ethyl-4-fluoro-2-(trimethylsilyl)-1-naphthalenecarboxamide], in assay [1], the inhibition at 0.1 ppm amounted to 0%, the inhibition at 1 ppm is 79% and the inhibition at 10 ppm came to 79%. Further, the pest or weed control at 0.1 mg/pot in the assay with Ggt (soil) was 18%.

`CCN(CC)C(=O)c1c([Si](C)(C)CI)ccc2ccccc12` [Example 2, N,N-Diethyl-2-[(iodomethyl)dimethylsilyl]-1-naphthalenecarboxamide]: in assay [1], the inhibition at 0.1 ppm was found to be 15%, the inhibition at 1 ppm is 46% and the inhibition at 10 ppm came to 100%. Besides, in the assay with Ggt (soil), the pest or weed control at 0.1 mg/pot is under 0% and the pest or weed control at 0.5 mg/pot is under 0%.

As to `CCN(CC)C(=O)c1c([Si](C)(C)C)ccc2ccccc12` [Example 3, N,N-Diethyl-2-(trimethylsilyl)-1-naphthalenecarboxamide], in assay [1], the inhibition at 0.1 ppm was determined as 0%, the inhibition at 1 ppm worked out at 0% and the inhibition at 10 ppm is 100%. For the same molecule, in the assay with Ggt (soil), the pest or weed control at 0.5 mg/pot was determined as 68%.

Consider `CCNC(=O)c1c([Si](C)(C)C)ccc2ccccc12` [Example 4, N-Ethyl-2-(trimethylsilyl)-1-naphthalenecarboxamide], for which, in assay [1], the inhibition at 0.1 ppm was 100%, the inhibition at 1 ppm was 100% and the inhibition at 10 ppm was found to be 100%. In the assay on Ggt (soil), the pest or weed control at 0.1 mg/pot is 85% and the pest or weed control at 0.5 mg/pot is 99%.

In the case of `CCNC(=O)c1cc2ccccc2cc1[Si](C)(C)C` [Example 5, N-Ethyl-3-(trimethylsilyl)-2-naphthalenecarboxamide], in assay [1], the inhibition at 0.1 ppm is 0%, the inhibition at 1 ppm was 94% and the inhibition at 10 ppm amounted to 100%. Moreover, in the assay on Ggt (soil), the pest or weed control at 0.1 mg/pot turned out to be 18% and the pest or weed control at 0.5 mg/pot is 27%.

With `CCNC(=O)c1c(OC(C)(C)C)ccc2ccccc12` [Example 6, 2-(1,1-Dimethylethoxy)-N-ethyl-1-naphthalenecarboxamide], the inhibition at 0.1 ppm in assay [1] (setting [2]) is 21%. In addition, in assay [1] (setting [3]), the inhibition at 1 ppm came out at 86%. The inhibition at 10 ppm in assay [1] (setting [4]) was found to be 93%. In the assay on Ggt (rate 0.1 (head prints ppm, head line ends mg/pot), wheat, soil infested with Ggt, after four weeks, N = no control), the pest or weed control at 0.1 mg/pot is 53%.

For the molecule `CCNC(=O)n1c([Si](C)(C)C)cc2ccccc21` [Example 7, N-Ethyl-2-(trimethylsilyl)-1H-indole-1-carboxamide], in assay [1], the inhibition at 0.1 ppm worked out at 88%, the inhibition at 1 ppm is 100% and the inhibition at 10 ppm stood at 100%. Further, in the assay on Ggt (soil), the pest or weed control at 0.1 mg/pot was found to be 40% and the pest or weed control at 0.5 mg/pot came to 79%.

Regarding `CCNC(=O)c1c([Si](C)(C)C)sc2ccccc12` [Example 8, N-Ethyl-2-(trimethylsilyl)-benzo[b]thiophene-3-carboxamide], in assay [1], the inhibition at 0.1 ppm was 97%, the inhibition at 1 ppm stood at 93% and the inhibition at 10 ppm stood at 100%. For the same molecule, in the assay on Ggt (soil), the pest or weed control at 0.1 mg/pot turned out to be 43% and the pest or weed control at 0.5 mg/pot stood at 71%.

With `CCNC(=O)c1sc2ccccc2c1[Si](C)(C)C` [Example 9, N-Ethyl-3-(trimethylsilyl)benzo[b]thiophene-2-carboxamide], in assay [1], the inhibition at 0.1 ppm was found to be 0%, the inhibition at 1 ppm is 0% and the inhibition at 10 ppm was 88%. The pest or weed control at 0.1 mg/pot in the assay on Ggt (soil) was under 0%.

In the case of `CCNC(=O)c1c([Si](C)(C)C)n(C)c2ccccc12` [Example 10, N-Ethyl-1-Methyl-2-(trimethylsilyl)-1H-indole-3-carboxamide], in assay [1], the inhibition at 0.1 ppm was 13%, the inhibition at 1 ppm was 80% and the inhibition at 10 ppm worked out at 85%.

For the molecule `CCNC(=O)c1oc2ccccc2c1[Si](C)(C)C` [Example 11, N-Ethyl-3-(trimethylsilyl)-2-benzofurancarboxamide], in assay [1], the inhibition at 0.1 ppm is 27%, the inhibition at 1 ppm turned out to be 42% and the inhibition at 10 ppm came out at 82%.

`CCNC(=O)c1c([Si](C)(C)C)oc2ccccc12` [Example 12, N-Ethyl-2-(trimethylsilyl)-3-benzofurancarboxamide]: in assay [1], the inhibition at 0.1 ppm was 97%, the inhibition at 1 ppm was found to be 97% and the inhibition at 10 ppm came out at 100%. Besides, in the assay with Ggt (soil), the pest or weed control at 0.1 mg/pot came out at 85% and the pest or weed control at 0.5 mg/pot turned out to be 97%.

As to `C=CCNC(=O)c1c([Si](C)(C)C)sc2ccccc12` [Example 13, N-2-Propenyl-2-(trimethylsilyl)benzo[b]thiophene-3-carboxamide], in assay [1], the inhibition at 0.1 ppm is 100%, the inhibition at 1 ppm turned out to be 100% and the inhibition at 10 ppm amounted to 100%. In the assay on Ggt (soil), the pest or weed control at 0.1 mg/pot came out at 84% and the pest or weed control at 0.5 mg/pot was found to be 94%.

Turning to `CCN(CC)C(=O)c1c([Si](C)(C)C)sc2ccccc12` [Example 14, N,N-Diethyl-2-(trimethylsilyl)benzo[b]thiophene-3-carboxamide], in assay [1], the inhibition at 0.1 ppm was 42%, the inhibition at 1 ppm turned out to be 92% and the inhibition at 10 ppm stood at 100%. In addition, in the assay on Ggt (soil), the pest or weed control at 0.1 mg/pot was found to be 76% and the pest or weed control at 0.5 mg/pot was 94%.

In the case of `CCNC(=O)C1=C([Si](C)(C)C)S(=O)(=O)c2ccccc21` [Example 15, N-Ethyl-2-(trimethylsilyl)benzo[b]thiophene-3-carboxamide 1,1-dioxide], in assay [1], the inhibition at 0.1 ppm is 10%, the inhibition at 1 ppm worked out at 30% and the inhibition at 10 ppm is 83%.

As for `CCN(SC)C(=O)c1c([Si](C)(C)C)sc2ccccc12` [Example 16, N-Ethyl-N-(methylthio)-2-(trimethylsilyl)benzo[b]-thiophene-3-carboxamide], in assay [1], the inhibition at 0.1 ppm was found to be 100%, the inhibition at 1 ppm was determined as 100% and the inhibition at 10 ppm turned out to be 100%. For the same molecule, in the assay on Ggt (soil), the pest or weed control at 0.1 mg/pot worked out at 87% and the pest or weed control at 0.5 mg/pot is 93%.

Take `CC(C)N(O)C(=O)c1c([Si](C)(C)C)sc2ccccc12` [Example 17, N-Hydroxy-N-(1-methylethyl)-2-(trimethylsilyl)benzo[b]-thiophene-3-carboxamide]: in assay [1], the inhibition at 0.1 ppm was determined as 96%, the inhibition at 1 ppm came out at 100% and the inhibition at 10 ppm was 100%. Moreover, in the assay on Ggt (soil), the pest or weed control at 0.1 mg/pot came to 42% and the pest or weed control at 0.5 mg/pot stood at 46%.

For `CC(C)(C)Nc1ccc2ccccc2c1C(=O)NCCBr` [Example 18, N-(2-bromoethyl) 2-[(1,1-dimethylethyl)amino]-1-naphthamide], in assay [1], the inhibition at 0.1 ppm is 10%, the inhibition at 1 ppm turned out to be 88% and the inhibition at 10 ppm worked out at 98%. The pest or weed control at 0.02 mg/pot in the assay on Ggt (soil, read-out: In vivo(ppm) 0.02mg/pot, percent disease control) was determined as 0%. Further, in the assay with Ggt (soil), the pest or weed control at 0.1 mg/pot was 0% and the pest or weed control at 0.5 mg/pot was 14%.

On to `CCNC(=O)c1c(OC2(C)CCCCC2)ccc2ccccc12` [Example 38, N-ethyl 2-[(1-methyl-1-cyclohexyl)oxy]-1-naphthamide], for which the inhibition at 0.1 ppm in assay [1] (setting [2]) amounted to 0%. Further, the inhibition at 1 ppm in assay [1] (setting [3]) is 43%. Further, the inhibition at 10 ppm in assay [1] (setting [4]) is 30%.

Turning to `CCNC(=O)c1c([Si](C)(C)C)ccc2ccoc12` [Example 44, N-ethyl 6-trimethylsilyl benzofuran-7-carboxamide], in assay [1], the inhibition at 0.1 ppm is 98%, the inhibition at 1 ppm came out at 98% and the inhibition at 10 ppm turned out to be 100%.
